We go through 3 molecules from ChEMBL document CHEMBL6114943, “Engineered Cyclotide Blocks Neuronal Excitotoxicity” (J Med Chem, 2025).

Series [1] can be described thus: Stability in C57BL/6 mouse plasma assessed as parent compound remaining at 100 uM measured after 24 hrs in presence of alteplase by HPLC analysis relative to control. The series is classed as ADME, cell-free. To be noted: read-out: Stability.
The nature of series [2]: Stability in C57BL/6 mouse plasma assessed as drug degradation at 100 uM measured after 5 hrs in presence of alteplase by HPLC analysis. In kind it is ADME, cell-free.
The nature of series [3]: Stability in C57BL/6 mouse plasma assessed as drug degradation by measuring parent compound remaining at 100 uM measured after 5 hrs by HPLC analysis relative to control. In kind it is ADME, cell-free. To be noted: read-out: Stability.
Series [4] in a line: Stability in C57BL/6 mouse plasma assessed as parent compound remaining at 100 uM measured after 24 hrs by HPLC analysis. To be noted: read-out: Stability. The series is classed as ADME, cell-free.
A short description of series [5]: Stability in C57BL/6 mouse plasma assessed as drug degradation by measuring parent compound remaining at 100 uM measured after 5 hrs in presence of alteplase by HPLC analysis relative to control. In kind it is ADME, cell-free. To be noted: read-out: Stability.
Series [6] in a line: Stability in C57BL/6 mouse plasma assessed as drug degradation by measuring parent compound remaining at 100 uM measured after 5 hrs in presence of alteplase by HPLC analysis. In kind it is ADME, cell-free. To be noted: read-out: Stability.
The nature of series [7]: Stability in C57BL/6 mouse plasma assessed as parent compound remaining at 100 uM measured after 24 hrs in presence of alteplase by HPLC analysis. The following applies: read-out: Stability. In kind it is ADME, cell-free.
The nature of series [8]: Drug uptake in mouse Primary neuron at 500 nM incubated for 60 mins by inverted confocal microscopic analysis relative to control. The series is classed as ADME, cell-based. The following applies: 1 h, 0.5 µM.
Series [9] can be described thus: Stability in C57BL/6 mouse plasma assessed as drug degradation by measuring parent compound remaining at 100 uM measured after 5 hrs by HPLC analysis. The following applies: read-out: Stability. In kind it is ADME, cell-free.
Series [10] can be described thus: Drug uptake in mouse Primary neuron at 100 nM incubated for 60 mins by inverted confocal microscopic analysis relative to control. In kind it is ADME, cell-based. The following applies: 1 h, 0.1 µM.
The nature of series [11]: Biodistribution in C57BL/6 mouse spleen at 3 nmol/g, iv measured after 90 mins post injection by fluorescence based analysis. The series is classed as ADME, organism-based. To be noted: in vivo, 1.5 h.
Series [12] in a line: Biodistribution in C57BL/6 mouse heart at 3 nmol/g, iv measured after 90 mins post injection by fluorescence based analysis. In kind it is ADME, organism-based. The following applies: in vivo, 1.5 h.
Series [13] is described as follows: Biodistribution in C57BL/6 mouse lung at 3 nmol/g, iv measured after 24 hrs post injection by fluorescence based analysis. The series is classed as ADME, organism-based. To be noted: in vivo.
Series [14] is described as follows: Biodistribution in C57BL/6 mouse kidney at 3 nmol/g, iv measured after 90 mins post injection by fluorescence based analysis. The series is classed as ADME, organism-based. The following applies: in vivo, 1.5 h.
Series [15] can be described thus: Biodistribution in C57BL/6 mouse liver at 3 nmol/g, iv measured after 90 mins post injection by fluorescence based analysis. The series is classed as ADME, organism-based. The following applies: in vivo, 1.5 h.
A short description of series [16]: Biodistribution in C57BL/6 mouse lung at 3 nmol/g, iv measured after 90 mins post injection by fluorescence based analysis. To be noted: in vivo, 1.5 h. The series is classed as ADME, organism-based.
Series [17] is described as follows: Biodistribution in C57BL/6 mouse spleen at 3 nmol/g, iv measured after 24 hrs post injection by fluorescence based analysis. To be noted: in vivo. In kind it is ADME, organism-based.
Series [18] in a line: Biodistribution in C57BL/6 mouse brain at 3 nmol/g, iv measured after 90 mins post injection by fluorescence based analysis. The series is classed as ADME, organism-based. The following applies: in vivo, 1.5 h.

Structures are written as SMILES. *1 amine or outer side, *2 acyl side, *3 side chain or, on linkers, in order; H or OH if unused. Where a SMILES comes first, the peptide text is derived from it. Bridges are numbered along the chain shown (N, C = ends). The star is where a group is joined. X2 = CC(C)C[C@H](C(=O)[C@H](CCCCNC(=O)c1ccc(-c2c3ccc(=[N+](C)C)cc-3oc3cc(N(C)C)ccc23)c(C(=O)[O-])c1)N[*:2])C(=O)[*:1]; X1 = CC[N+]1=C(/C=C/C=C/C=C/C=C2/N(CCCCCC(=O)*)c3ccc(S(=O)(=O)O)cc3C2(C)C)C(C)(C)c2cc(S(=O)(=O)[O-])ccc21

With `CC[C@@H](C)[C@@H](NC(=O)[C@@H](CO)NC(=O)[C@@H](CO)NC(=O)[C@@H](CC(C)C)NC(=O)[C@@H](CCCCN)NC(=O)[C@@H](CCCNC(=N)N)NC(=O)[C@@H](CCCNC(=N)N)NC(=O)[C@@H](CCCNC(=N)N)NC(=O)[C@@H](CCC(N)=O)NC(=O)[C@@H](CCCNC(=N)N)NC(=O)[C@@H](CCCNC(=N)N)NC(=O)[C@@H](CCCCN)NC(=O)[C@@H](CCCCN)NC(=O)[C@@H](CCCNC(=N)N)NC(=O)CNC(=O)[C@@H](Cc1ccc(O)cc1)NC(=O)c1ccc(C(=O)[O-])cc1-c1c2ccc(=[N+](C)C)cc-2oc2cc(N(C)C)ccc12)C(=O)N[C@H](CCC(=O)O)C(=O)N[C@H](CO)C(=O)N[C@H](CC(=O)O)C(=O)N[C@@H](C(=O)O)C(C)C`, the remaining at 24 h, 100 µM in series [1] and in series [4] was 80% throughout. In series [2], the Stability result is “Unstable”. Moreover, the remaining at 5 h, 100 µM is 85% in series [3] and 82% in series [5].

Regarding `CC[C@H](C)[C@@H]1NC(=O)[C@@H]2CSSC[C@@H]3NC(=O)[C@H](C(C)C)NC(=O)[C@H](CC(=O)O)NC(=O)[C@H](CO)NC(=O)[C@H](CCC(=O)O)NC(=O)[C@H]([C@@H](C)CC)NC(=O)[C@H](CO)NC(=O)[C@H](CO)NC(=O)[C@H](CC(C)C)C(=O)[C@H](CCCCNC(=O)c4ccc(-c5c6ccc(=[N+](C)C)cc-6oc6cc(N(C)C)ccc56)c(C(=O)[O-])c4)NC(=O)[C@@H]4CSSC[C@H](NC(=O)[C@H](CC(=O)O)NC(=O)[C@H](CO)NC(=O)[C@H](CC(=O)O)NC(=O)[C@H](CCCNC(=N)N)NC(=O)[C@H](CCCNC(=N)N)NC(=O)[C@H](CSSC[C@H](NC1=O)C(=O)N[C@@H](CCCNC(=N)N)C(=O)NCC(=O)N[C@@H](CC(N)=O)C(=O)NCC(=O)N[C@@H](Cc1ccc(O)cc1)C(=O)N4)NC(=O)[C@H](CCCNC(=N)N)NC(=O)[C@H](CCCNC(=N)N)NC(=O)[C@H](CCCNC(=N)N)NC(=O)[C@H](CCCNC(=N)N)NC(=O)[C@H](CC(C)C)NC(=O)[C@H]([C@@H](C)CC)NC(=O)[C@H](CCCNC(=N)N)NC(=O)[C@@H]1CCCN1C3=O)C(=O)N1CCC[C@H]1C(=O)NCC(=O)N[C@@H](C)C(=O)N2` (SSIESDVCPRILRRRRCRRDSDCPGACICRGNGYC; disulfide 8-27, 17-29, 23-35; linker N-C via X2), the remaining at 5 h, 100 µM in series [6] and in series [9] was 93% each time. Also, the remaining at 24 h, 100 µM in series [7] and in series [4] was 90% throughout. The values for the Drug uptake in [8] and in [10] were 85.7% and 75.9%, respectively. Moreover, the Stability entry in [2] is on record as “Unstable”.

Consider `CC[C@H](C)[C@H](NC(=O)[C@H](CO)NC(=O)[C@H](CO)NC(=O)[C@H](CC(C)C)NC(=O)[C@H](CCCCN)NC(=O)[C@H](CCCNC(=N)N)NC(=O)[C@H](CCCNC(=N)N)NC(=O)[C@H](CCCNC(=N)N)NC(=O)[C@H](CCC(N)=O)NC(=O)[C@H](CCCNC(=N)N)NC(=O)[C@H](CCCNC(=N)N)NC(=O)[C@H](CCCCN)NC(=O)[C@H](CCCCN)NC(=O)[C@H](CCCNC(=N)N)NC(=O)CNC(=O)[C@H](Cc1ccc(O)cc1)NC(=O)CCCCCN1/C(=C/C=C/C=C/C=C/C2=[N+](CC)c3ccc(S(=O)(=O)[O-])cc3C2(C)C)C(C)(C)c2cc(S(=O)(=O)O)ccc21)C(=O)N[C@@H](CCC(=O)O)C(=O)N[C@@H](CO)C(=O)N[C@@H](CC(=O)O)C(=O)N[C@H](C(=O)O)C(C)C` (X1-YGRKKRRQRRRKLSSIESDV-OH), for which the Drug uptake entry is “Active” in series [11]; “Active” in [12]; “Not_active” in series [13]; “Active” in [14]; “Active” in series [15]; “Active” in series [16]. The Drug uptake entry is “Not_active” in [17] and “Active” in [18].
